From US10758534B2 (Vertex Pharmaceuticals Incorporated, priority 2014, dated 2020)

Biological target: T1, F508del (Homo sapiens, UniProt P13569, DEL508-508)
T1 construct: expressed in transfected cells
Test: Protocol 2: FRET membrane potential optical assay (VIPR), identification of correction compounds
Format: cell-based
Conditions: Table 3; compounds of Table 1 as modulators of CFTR activity; protocol not stated
In short: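 Corrector readout: membrane-potential FRET (CC2-DMPE donor, DiSBAC2(3) acceptor) on VIPR II after Cl⁻-free gluconate bath with 10 μM forskolin and 20 μM genistein. Before this, F508del-expressing NIH3T3 cells were exposed to test compound for 16 h at 37 °C without serum; 27 °C incubation served as temperature-correction control.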

T1 sequence (P13569 with tags, fused parts or gaps DEL508-508): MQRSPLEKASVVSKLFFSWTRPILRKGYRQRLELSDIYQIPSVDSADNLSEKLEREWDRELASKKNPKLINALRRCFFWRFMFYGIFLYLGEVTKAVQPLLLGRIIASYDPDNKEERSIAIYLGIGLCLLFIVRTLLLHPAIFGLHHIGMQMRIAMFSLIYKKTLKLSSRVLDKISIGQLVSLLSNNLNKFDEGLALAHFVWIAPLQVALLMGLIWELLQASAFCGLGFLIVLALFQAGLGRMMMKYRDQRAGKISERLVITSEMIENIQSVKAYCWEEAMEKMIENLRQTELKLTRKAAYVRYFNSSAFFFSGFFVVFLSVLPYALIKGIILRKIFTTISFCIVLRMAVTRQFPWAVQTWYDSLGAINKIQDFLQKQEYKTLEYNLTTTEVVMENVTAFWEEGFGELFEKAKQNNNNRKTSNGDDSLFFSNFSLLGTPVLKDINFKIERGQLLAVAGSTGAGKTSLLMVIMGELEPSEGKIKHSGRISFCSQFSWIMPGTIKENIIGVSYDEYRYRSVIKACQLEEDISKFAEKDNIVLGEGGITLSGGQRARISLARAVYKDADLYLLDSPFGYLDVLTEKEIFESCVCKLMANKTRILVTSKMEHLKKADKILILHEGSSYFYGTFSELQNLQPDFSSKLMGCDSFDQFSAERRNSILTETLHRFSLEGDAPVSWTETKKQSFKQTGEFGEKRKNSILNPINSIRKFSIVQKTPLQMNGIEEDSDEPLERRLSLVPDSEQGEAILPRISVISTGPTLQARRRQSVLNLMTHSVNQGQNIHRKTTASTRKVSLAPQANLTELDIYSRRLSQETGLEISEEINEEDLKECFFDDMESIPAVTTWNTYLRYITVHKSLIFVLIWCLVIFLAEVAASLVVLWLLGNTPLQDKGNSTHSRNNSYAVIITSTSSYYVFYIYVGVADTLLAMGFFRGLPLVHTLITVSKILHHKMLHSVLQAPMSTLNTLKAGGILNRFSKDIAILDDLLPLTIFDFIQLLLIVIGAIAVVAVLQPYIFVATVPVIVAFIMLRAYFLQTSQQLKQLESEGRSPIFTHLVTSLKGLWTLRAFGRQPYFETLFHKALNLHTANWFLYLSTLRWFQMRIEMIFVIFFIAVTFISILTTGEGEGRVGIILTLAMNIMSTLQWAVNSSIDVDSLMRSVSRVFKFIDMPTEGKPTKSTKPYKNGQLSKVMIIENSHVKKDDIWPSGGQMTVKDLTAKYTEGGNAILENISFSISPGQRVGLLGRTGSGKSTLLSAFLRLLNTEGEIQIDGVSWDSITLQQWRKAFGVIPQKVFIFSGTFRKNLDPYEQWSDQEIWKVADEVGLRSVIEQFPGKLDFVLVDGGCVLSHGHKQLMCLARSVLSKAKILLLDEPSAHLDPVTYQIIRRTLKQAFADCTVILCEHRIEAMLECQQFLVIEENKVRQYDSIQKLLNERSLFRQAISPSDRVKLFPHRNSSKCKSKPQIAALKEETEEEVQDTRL

| Structure (SMILES) | EC30 |
| --- | --- |
| Cc1cc(C)c(Oc2nc(-c3ccccc3)ccc2C(=O)NS(=O)(=O)c2cccc(N)c2)c(C)c1 [Compound 231, N-(3-aminophenyl)sulfonyl-6-phenyl-2-(2,4,6-trimethylphenoxy)pyridine-3-carboxamide] | +++ (“+++” means <3 uM) |
| CC(C)Oc1ccc(-c2ccc(C(=O)NS(=O)(=O)c3cccc(N)n3)c(N3CCCC(c4ccccc4)C3)n2)cn1 (stereo not drawn) [Compound 233, N-[(6-amino-2-pyridyl)sulfonyl]-6-(6-isopropoxy-3-pyridyl)-2-[-3-phenyl-1-piperidyl]pyridine-3-carboxamide] | +++ (“+++” means <3 uM) |
| Cc1cc(C)c(Oc2nc(C(C)(C)C)ccc2C(=O)NS(=O)(=O)c2cccnc2N)c(C)c1 [Compound 235, N-[(2-amino-3-pyridyl)sulfonyl]-6-tert-butyl-2-(2,4,6-trimethylphenoxy)pyridine-3-carboxamide] | +++ (“+++” means <3 uM) |
| Cc1cc(F)cc(-c2nc(C(C)(C)C)ccc2C(=O)NS(=O)(=O)c2cccc(N)c2)c1 [Compound 237, N-(3-aminophenyl)sulfonyl-6-tert-butyl-2-(3-fluoro-5-methyl-phenyl)pyridine-3-carboxamide] | ++ (“++” means between 3 uM and 10 uM) |
| Cc1cc(C)c(Oc2nc(-c3ccc(Cl)c(OCC(C)C)c3)ccc2C(=O)NS(=O)(=O)c2cccc(N)n2)c(C)c1 [Compound 238, N-[(6-amino-2-pyridyl)sulfonyl]-6-(4-chloro-3-isobutoxy-phenyl)-2-(2,4,6-trimethylphenoxy)pyridine-3-carboxamide] | +++ (“+++” means <3 uM) |
| Cc1cc(C)c(Oc2nc3ccccc3cc2C(=O)NS(=O)(=O)c2ccncc2)c(C)c1 [Compound 240, N-(4-pyridylsulfonyl)-2-(2,4,6-trimethylphenoxy)quinoline-3-carboxamide] | ++ (“++” means between 3 uM and 10 uM) |
| COc1ccc2c(c1)cc(C(=O)NS(=O)(=O)c1ccccc1)n2Cc1c(C)cc(C)cc1C [Compound 241, N-(benzenesulfonyl)-5-methoxy-1-[(2,4,6-trimethylphenyl)methyl]indole-2-carboxamide] | +++ (“+++” means <3 uM) |
| Cc1cc(C)c(Cn2cc(C(C)(C)C)cc2C(=O)NS(=O)(=O)c2ccccc2)c(C)c1 [Compound 242, N-(benzenesulfonyl)-4-tert-butyl-1-[(2,4,6-trimethylphenyl)methyl]pyrrole-2-carboxamide] | +++ (“+++” means <3 uM) |
| Cc1cccc(C)c1Oc1nc(C(F)(F)F)ccc1C(=O)NS(=O)(=O)c1cccc(N)c1 [Compound 243, N-(3-aminophenyl)sulfonyl-2-(2,6-dimethylphenoxy)-6-(trifluoromethyl)pyridine-3-carboxamide] | +++ (“+++” means <3 uM) |
| Cc1cc(C)c(Oc2nc(C(F)(F)F)ccc2C(=O)NS(=O)(=O)c2ccccc2)c(C)c1 [Compound 244, N-(benzenesulfonyl)-6-(trifluoromethyl)-2-(2,4,6-trimethylphenoxy)pyridine-3-carboxamide] | +++ (“+++” means <3 uM) |
| Cc1cc(C)c(Cn2c(C(=O)NS(=O)(=O)c3ccccc3)cc3cc(C)ccc32)c(C)c1 [Compound 248, N-(benzenesulfonyl)-5-methyl-1-[(2,4,6-trimethylphenyl)methyl]indole-2-carboxamide] | +++ (“+++” means <3 uM) |
| CC(C)(C)c1ccc(-c2nc(C(C)(C)C)ccc2C(=O)NS(=O)(=O)c2cccc(N)c2)cc1 [Compound 252, N-(3-aminophenyl)sulfonyl-6-tert-butyl-2-(4-tert-butylphenyl)pyridine-3-carboxamide] | +++ (“+++” means <3 uM) |
| COc1cccc(S(=O)(=O)NC(=O)c2cc3ccccc3n2Cc2c(C)cc(C)cc2C)n1 [Compound 253, N-[(6-methoxy-2-pyridyl)sulfonyl]-1-[(2,4,6-trimethylphenyl)methyl]indole-2-carboxamide] | +++ (“+++” means <3 uM) |
| Cc1cccc(C)c1Cn1nc(C(C)(C)C)cc1C(=O)NS(=O)(=O)c1ccccc1 [Compound 257, N-(benzenesulfonyl)-5-tert-butyl-2-[(2,6-dimethylphenyl)methyl]pyrazole-3-carboxamide] | +++ (“+++” means <3 uM) |
| Cc1cc(C)c(Oc2nc3ccccc3cc2C(=O)NS(=O)(=O)c2cccc(N)c2)c(C)c1 [Compound 260, N-(3-aminophenyl)sulfonyl-2-(2,4,6-trimethylphenoxy)quinoline-3-carboxamide] | ++ (“++” means between 3 uM and 10 uM) |

Next, values leading:

| EC30 | Structure (SMILES) |
| --- | --- |
| ++ (“++” means between 3 uM and 10 uM) | Cc1cc(C)c(CN2Cc3ccccc3C2C(=O)NS(=O)(=O)c2ccccc2N)c(C)c1 (stereo not drawn) [Compound 230, N-(2-aminophenyl)sulfonyl-2-[(2,4,6-trimethylphenyl)methyl]isoindoline-1-carboxamide] |
| +++ (“+++” means <3 uM) | Cc1cc(C)c(Cn2c(C(=O)NS(=O)(=O)c3ccccc3)c(C)c3ccccc32)c(C)c1 [Compound 232, N-(benzenesulfonyl)-3-methyl-1-[(2,4,6-trimethylphenyl)methyl]indole-2-carboxamide] |
| +++ (“+++” means <3 uM) | Cc1cc(C)c(Oc2nc(-c3ccc(Cl)cc3)ccc2C(=O)NS(=O)(=O)c2cccc(N)n2)c(C)c1 [Compound 234, N-[(6-amino-2-pyridyl)sulfonyl]-6-(4-chlorophenyl)-2-(2,4,6-trimethylphenoxy)pyridine-3-carboxamide] |
| ++ (“++” means between 3 uM and 10 uM) | Cc1cc(C)c(CN2C[C@@H](c3ccccc3)C[C@H]2C(=O)NS(=O)(=O)c2cccc(N)n2)c(C)c1 [Compound 236, (2S,4R)—N-[(6-Amino-2-pyridyl)sulfonyl]-4-phenyl-1-[(2,4,6-trimethylphenyl)methyl]pyrrolidine-2-carboxamide] |
| +++ (“+++” means <3 uM) | CC(C)(C)c1cc(C(=O)NS(=O)(=O)c2cccc(N)c2)n(Cc2c(F)cccc2C(F)(F)F)n1 [Compound 239, N-(3-aminophenyl)sulfonyl-5-tert-butyl-2-[[2-fluoro-6-(trifluoromethyl)phenyl]methyl]pyrazole-3-carboxamide] |
| ++ (“++” means between 3 uM and 10 uM) | Cn1ccc2c(Cn3nc(C(C)(C)C)cc3C(=O)NS(=O)(=O)c3ccccc3)cccc21 [Compound 245, N-(benzenesulfonyl)-5-tert-butyl-2-[(1-methylindol-4-yl)methyl]pyrazole-3-carboxamide] |
| ++ (“++” means between 3 uM and 10 uM) | Cc1cccc(C)c1Oc1nc(C(F)(F)F)ccc1C(=O)NS(=O)(=O)c1cccc(N)n1 [Compound 246, N-[(6-amino-2-pyridyl)sulfonyl]-2-(2,6-dimethylphenoxy)-6-(trifluoromethyl)pyridine-3-carboxamide] |
| +++ (“+++” means <3 uM) | Cc1cc(C)c(Cn2c(C(=O)NS(=O)(=O)c3ccccn3)cc3ccccc32)c(C)c1 [Compound 247, N-(2-pyridylsulfonyl)-1-[(2,4,6-trimethylphenyl)methyl]indole-2-carboxamide] |
| +++ (“+++” means <3 uM) | CNc1cccc(S(=O)(=O)NC(=O)c2cc(C(C)(C)C)nn2Cc2c(C)cc(C)cc2C)c1 [Compound 249, 5-tert-butyl-N-[3-(methylamino)phenyl]sulfonyl-2-[(2,4,6-trimethylphenyl)methyl]pyrazole-3-carboxamide] |
| +++ (“+++” means <3 uM) | CCOc1ccccc1-c1ccc(C(=O)NS(=O)(=O)c2cccc(N)n2)c(Oc2c(C)cc(C)cc2C)n1 [Compound 250, N-[(6-amino-2-pyridyl)sulfonyl]-6-(2-ethoxyphenyl)-2-(2,4,6-trimethylphenoxy)pyridine-3-carboxamide] |
| +++ (“+++” means <3 uM) | Cc1ccc(Oc2nc(C(C)(C)C)ccc2C(=O)NS(=O)(=O)c2cccc(N)c2)c(C)c1 [Compound 251, N-(3-aminophenyl)sulfonyl-6-tert-butyl-2-(2,4-dimethylphenoxy)pyridine-3-carboxamide] |
| ++ (“++” means between 3 uM and 10 uM) | Cc1cc(C)c(CN2Cc3ccccc3C2C(=O)NS(=O)(=O)c2cccc(O)c2)c(C)c1 (stereo not drawn) [Compound 254, N-(3-hydroxyphenyl)sulfonyl-2-[(2,4,6-trimethylphenyl)methyl]isoindoline-1-carboxamide] |
| +++ (“+++” means <3 uM) | Cc1cc(C)c(Cn2cc(C(C)(C)C)nc2C(=O)NS(=O)(=O)c2cccc(N)c2)c(C)c1 [Compound 255, N-(3-aminophenyl)sulfonyl-4-tert-butyl-1-[(2,4,6-trimethylphenyl)methyl]imidazole-2-carboxamide] |
| +++ (“+++” means <3 uM) | Cc1cc(C)c(Oc2nn(C(C)(C)C)cc2C(=O)NS(=O)(=O)c2cccc(N)n2)c(C)c1 [Compound 256, N-[(6-amino-2-pyridyl)sulfonyl]-1-tert-butyl-3-(2,4,6-trimethylphenoxy)pyrazole-4-carboxamide] |
| ++ (“++” means between 3 uM and 10 uM) | COc1cccnc1S(=O)(=O)NC(=O)c1cc2ccccc2n1Cc1c(C)cc(C)cc1C [Compound 258, N-[(3-methoxy-2-pyridyl)sulfonyl]-1-[(2,4,6-trimethylphenyl)methyl]indole-2-carboxamide] |
| +++ (“+++” means <3 uM) | Cc1cc(C)c(Cn2c(C(=O)NS(=O)(=O)c3cccc(N)c3)cc3cc(C)ccc32)c(C)c1 [Compound 259, N-(3-aminophenyl)sulfonyl-5-methyl-1-[(2,4,6-trimethylphenyl)methyl]indole-2-carboxamide] |
| +++ (“+++” means <3 uM) | Cc1cc(C)c(Cn2nc(C(C)(C)C)nc2C(=O)NS(=O)(=O)c2cccc(N)c2)c(C)c1 [Compound 261, N-(3-aminophenyl)sulfonyl-5-tert-butyl-2-[(2,4,6-trimethylphenyl)methyl]-1,2,4-triazole-3-carboxamide] |
| +++ (“+++” means <3 uM) | CNc1cccc(S(=O)(=O)NC(=O)c2ccc(C(C)(C)C)nc2Oc2c(C)cc(C)cc2C)n1 [Compound 262, 6-tert-butyl-N-[[6-(methylamino)-2-pyridyl]sulfonyl]-2-(2,4,6-trimethylphenoxy)pyridine-3-carboxamide] |
